One assay concerns T1, V1-E.h-DF.
T1 construct: gene atpA
As to the kind of experiment: enzyme-coupled ATP regenerating ATPase assay, Michaelis-Menten fit. The class given is biochemical, Thermus thermophilus. The settings on record: 25°C; isolated V1. The text has this: enzyme-coupled ATP regenerating ATPase assay, Michaelis-Menten fit on V1-E.h-DF

The test system of a further assay is T2, V1-H.s-DF.
T2 construct: gene atpA
The description is as above. The settings on record: 25°C; isolated V1. The class given is biochemical, Thermus thermophilus. An excerpt:
enzyme-coupled ATP regenerating ATPase assay, Michaelis-Menten fit on V1-H.s-DF

In general, Km refers to the concentration of substrate that gives half-maximal velocity. As to `Nc1ncnc2c1ncn2[C@@H]1O[C@H](COP(=O)(O)OP(=O)(O)OP(=O)(O)O)[C@@H](O)[C@H]1O` [ATP], the figures for the Km with V1-E.h-DF and in the assay on V1-H.s-DF were 760 ± 40 µM and 480 ± 40 µM, respectively.

The values are drawn from paper PMC4355294, “The Ingenious Structure of Central Rotor Apparatus in VoV1; Key for Both Complex Disassembly and Energy Coupling between V1 and Vo” (PLoS ONE, 2015).
